Source: patent publication US20220056019A1, “FARNESOID X RECEPTOR AGONISTS AND USES THEREOF” (Metacrine, Inc., priority 2018, published 2022)

Each compound was assayed against T1, hFXR (Homo sapiens, UniProt Q96RI1) (assay: In Vitro FXR Assay (TK): TK-ECRE-luc reporter in transfected CV-1 cells). Details: 18 hrs incubation, luminescence.
T1 construct: expressed in transfected cells; host or cells: CV-1 cells
T1 sequence (Q96RI1 1-486): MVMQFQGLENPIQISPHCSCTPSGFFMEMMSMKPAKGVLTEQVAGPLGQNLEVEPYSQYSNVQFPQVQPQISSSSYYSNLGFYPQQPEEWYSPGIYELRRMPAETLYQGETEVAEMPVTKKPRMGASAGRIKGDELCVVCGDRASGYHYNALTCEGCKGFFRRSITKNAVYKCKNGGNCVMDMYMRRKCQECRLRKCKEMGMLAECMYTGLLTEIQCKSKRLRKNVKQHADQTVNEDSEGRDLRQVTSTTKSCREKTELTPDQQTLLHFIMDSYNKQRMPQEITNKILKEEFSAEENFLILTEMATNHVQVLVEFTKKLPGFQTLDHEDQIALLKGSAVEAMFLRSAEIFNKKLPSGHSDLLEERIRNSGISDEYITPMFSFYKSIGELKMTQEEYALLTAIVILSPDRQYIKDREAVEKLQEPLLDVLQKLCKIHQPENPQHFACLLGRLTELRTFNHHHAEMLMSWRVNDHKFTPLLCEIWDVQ
T1 sequence (P19793 1-462 partner): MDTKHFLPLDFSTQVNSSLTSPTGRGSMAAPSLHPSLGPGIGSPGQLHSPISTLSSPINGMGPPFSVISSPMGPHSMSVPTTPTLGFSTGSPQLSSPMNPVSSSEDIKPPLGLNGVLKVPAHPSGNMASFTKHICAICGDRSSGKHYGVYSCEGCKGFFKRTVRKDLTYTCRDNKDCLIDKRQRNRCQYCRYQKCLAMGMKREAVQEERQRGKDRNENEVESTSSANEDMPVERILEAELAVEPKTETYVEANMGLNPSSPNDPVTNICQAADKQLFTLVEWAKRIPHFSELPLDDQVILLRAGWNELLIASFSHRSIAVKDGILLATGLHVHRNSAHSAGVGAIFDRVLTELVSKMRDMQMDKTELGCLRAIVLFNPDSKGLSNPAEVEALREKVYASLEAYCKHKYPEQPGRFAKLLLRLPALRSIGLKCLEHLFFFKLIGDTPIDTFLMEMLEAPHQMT
Type: cell-based
Outline: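 Reporter gene assay: CV-1 cells co-expressing hFXR, hRXR, TK-ECRE-luc and pCMX-YFP after overnight transfection in charcoal-stripped serum. Treatment with serially diluted compounds lasted 18 hrs at 37 °C, followed by cell lysis and a luminescence measurement.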

EC50	SMILES
≤ 0.05 µM	COc1ccc([C@H]2CC[C@H](CN(c3cccc(-c4cnn(C(C)C)c4)c3)C(=O)[C@H]3CC[C@H](NC(=O)OCCO)CC3)CC2)cc1C [Compound 6.03, 2-Hydroxyethyl (trans-4-((3-(1-isopropyl-1H-pyrazol-4-yl)phenyl)((trans-4-(4-methoxy-3-methylphenyl)cyclohexyl)meth-yl)carbamoyl)cyclohexyl)carbamate]
≤ 0.05 µM	COCCOC(=O)N[C@H]1CC[C@H](C(=O)N(C[C@H]2CC[C@H](c3ccc(OC)c(C)c3)CC2)c2cccc(-c3cnn(C(C)C)c3)c2)CC1 [Compound 6.04, 2-Methoxyethyl (trans-4-((3-(1-isopropyl-1H-pyrazol-4-yl)phenyl)((trans-4-(4-methoxy-3-methylphenyl)cyclohexyl)meth-yl)carbamoyl)cyclohexyl)carbamate]
≤ 0.05 µM	COc1ccc([C@H]2CC[C@H](CN(c3cccc(-c4cnn(C(C)C)c4)c3)C(=O)[C@H]3CC[C@H](NC(=O)OC4COC4)CC3)CC2)cc1C [Compound 6.05, Oxetan-3-yl (trans-4-((3-(1-isopropyl-1H-pyrazol-4-yl)phenyl)((trans-4-(4-methoxy-3-methylphenyl)cyclohexyl)meth-yl)carbamoyl)cyclohexyl)carbamate]
≤ 0.05 µM	COc1ccc([C@H]2CC[C@H](CN(c3cccc(-c4cnn(C(C)C)c4)c3)C(=O)[C@H]3CC[C@H](NC(=O)OC4CCOCC4)CC3)CC2)cc1C [Compound 6.06, Tetrahydro-2H-pyran-4-yl (trans-4-((3-(1-isopropyl-1H-pyrazol-4-yl)phenyl)((trans-4-(4-methoxy-3-methylphenyl)cyclohexyl)meth-yl)carbamoyl)cyclohexyl)carbamate]
0.05 to 1 µM	COc1ccc([C@H]2CC[C@H](CN(c3cccc(-c4cnn(C(C)C)c4)c3)C(=O)[C@H]3CC[C@H](NC(=O)OC4CN(C)C4)CC3)CC2)cc1C [Compound 6.07, 1-Methylazetidin-3-yl (trans-4-((3-(1-isopropyl-1H-pyrazol-4-yl)phenyl)((trans-4-(4-methoxy-3-methylphenyl)cyclohexyl)meth-yl)carbamoyl)cyclohexyl)carbamate]
0.05 to 1 µM	COc1ccc([C@H]2CC[C@H](CN(c3cccc(-c4cnn(C(C)C)c4)c3)C(=O)[C@H]3CC[C@H](NC(=O)OC4CCN(C)CC4)CC3)CC2)cc1C [Compound 6.08, 1-Methylpiperidin-4-yl (trans-4-((3-(1-isopropyl-1H-pyrazol-4-yl)phenyl)((trans-4-(4-methoxy-3-methylphenyl)cyclohexyl)meth-yl)carbamoyl)cyclohexyl)carbamate]
≤ 0.05 µM	COc1ccc(C23CCC(CN(c4cc(-c5cnn(C(C)C)c5)ccn4)C(=O)[C@H]4CC[C@H](NC(=O)OCCO)CC4)(CC2)CC3)cc1C [Compound 7, (trans)-2-Hydroxyethyl (4-((4-(1-isopropyl-1H-pyrazol-4-yl)pyridine-2-yl)((4-(4-methoxy-3-methylphenyl)bicyclo[2.2.2]octan-1-yl)methyl)carbamoyl)cyclohexyl)carbamate]
≤ 0.05 µM	COCCOC(=O)N[C@H]1CC[C@H](C(=O)N(CC23CCC(c4ccc(OC)c(C)c4)(CC2)CC3)c2cc(-c3cnn(C(C)C)c3)ccn2)CC1 [Compound 7.01, (trans)-2-Methoxyethyl (4-((4-(1-isopropyl-1H-pyrazol-4-yl)pyridin-2-yl)((4-(4-methoxy-3-methylphenyl)bicyclo[2.2.2]octan-1-yl)methyl)carbamoyl)cyclohexyl) carbamate]
≤ 0.05 µM	COc1ccc(C23CCC(CN(c4cc(-c5cnn(C(C)C)c5)ccn4)C(=O)[C@H]4CC[C@H](NC(=O)OC5COC5)CC4)(CC2)CC3)cc1C [Compound 7.02, (trans)-Oxetan-3-yl (4-((4-(1-isopropyl-1H-pyrazol-4-yl)pyridin-2-yl)((4-(4-methoxy-3-methylphenyl)bicyclo[2.2.2]octan-1-yl)methyl)carbamoyl)cyclohexyl) carbamate]
≤ 0.05 µM	COc1ccc(C23CCC(CN(c4cc(-c5cnn(C(C)C)c5)ccn4)C(=O)[C@H]4CC[C@H](NC(=O)OC5CCOCC5)CC4)(CC2)CC3)cc1C [Compound 7.03, (trans)-Tetrahydro-2H-pyran-4-yl (4-((4-(1-isopropyl-1H-pyrazol-4-yl)pyridin-2-yl)((4-(4-methoxy-3-methylphenyl)bicyclo[2.2.2]octan-1-yl)methyl)carbamoyl)cyclohexyl) carbamate]
≤ 0.05 µM	COC(=O)N[C@H]1CC[C@H](C(=O)N(CC23CCC(c4ccc(OC)c(C)c4)(CC2)CC3)c2cc(-c3cnn(C(C)C)c3)ccn2)CC1 [Compound 8, Methyl trans-(4-((4-(1-isopropyl-1H-pyrazol-4-yl)pyridin-2-yl)((4-(4-methoxy-3-methylphenyl)bicyclo[2.2.2]octan-1-yl)methyl)carbamoyl)cyclohexyl)carbamate]
≤ 0.05 µM	CCOC(=O)N[C@H]1CC[C@H](C(=O)N(CC23CCC(c4ccc(OC)c(C)c4)(CC2)CC3)c2cc(-c3cnn(C(C)C)c3)ccn2)CC1 [Compound 8.01, (trans)-Ethyl (4-((4-(1-isopropyl-1H-pyrazol-4-yl)pyridin-2-yl)((4-(4-methoxy-3-methylphenyl)bicyclo[2.2.2]octan-1-yl)methyl)carbamoyl)cyclohexyl)car-bamate]
≤ 0.05 µM	COc1ccc(C23CCC(CN(c4cc(-c5cnn(C(C)C)c5)ccn4)C(=O)[C@H]4CC[C@H](NC(=O)OC(C)C)CC4)(CC2)CC3)cc1C [Compound 8.02, (trans)-Isopropyl (4-((4-(1-isopropyl-1H-pyrazol-4-yl)pyridin-2-yl)((4-(4-methoxy-3-methylphenyl)bicyclo[2.2.2]octan-1-yl)methyl)carbamoyl)cyclohexyl)car-bamate]
≤ 0.05 µM	COc1ccc(C23CCC(CN(c4cc(-c5cnc(C(C)C)s5)ccn4)C(=O)[C@H]4CC[C@H](NC(=O)CO)CC4)(CC2)CC3)cc1C [Compound 9, (trans)-4-(2-Hydroxyacetamido)-N-(4-(2-isopropylthiazol-5-yl)pyridin-2-yl)-N-((4-(4-methoxy-3-methylphenyl)bicyclo[2.2.2]octan-1-yl)methyl)cyclohexanecarboxamide]
≤ 0.05 µM	COCC(=O)N[C@H]1CC[C@H](C(=O)N(CC23CCC(c4ccc(OC)c(C)c4)(CC2)CC3)c2cc(-c3cnn(C(C)C)c3)ccn2)CC1 [Compound 9.01, trans-N-(4-(1-Isopropyl-1H-pyrazol-4-yl)pyridin-2-yl)-N-((4-(4-methoxy-3-methylphenyl)bicyclo[2.2.2]octan-1-yl)methyl)-4-(2-methoxyacetamido)cyclohexanecar-boxamide]
≤ 0.05 µM	COc1ccc(C23CCC(CN(c4cc(-c5cnn(C(C)C)c5)ccn4)C(=O)[C@H]4CC[C@H](NC(=O)CO)CC4)(CC2)CC3)cc1C [Compound 9.02, trans-4-(2-Hydroxyacetamido)-N-(4-(1-isopropyl-1H-pyrazol-4-yl)pyridin-2-yl)-N-((4-(4-methoxy-3-methylphenyl)bicyclo[2.2.2]octan-1-yl)methyl)cyclohexanecarboxamide]
≤ 0.05 µM	COc1ccc(C23CCC(CN(c4cc(-c5cnn(C(C)C)c5)ccn4)C(=O)[C@H]4CC[C@H](NC(=O)C(C)(C)O)CC4)(CC2)CC3)cc1C [Compound 9.03]
≤ 0.05 µM	COc1ccc(C23CCC(CN(c4cc(-c5cnc(C(C)C)s5)ccn4)C(=O)[C@H]4CC[C@H](NC(C)=O)CC4)(CC2)CC3)cc1C [Compound 9.04, (trans)-4-Acetamido-N-(4-(2-isopropylthiazol-5-yl)pyridin-2-yl)-N-((4-(4-methoxy-3-methylphenyl)bicyclo[2.2.2]octan-1-yl)methyl)cyclohexanecarboxamide]
≤ 0.05 µM	COCC(=O)N[C@H]1CC[C@H](C(=O)N(CC23CCC(c4ccc(OC)c(C)c4)(CC2)CC3)c2cc(-c3cnc(C(C)C)s3)ccn2)CC1 [Compound 9.05, (trans)-N-(4-(2-Isopropylthiazol-5-yl)pyridin-2-yl)-N-((4-(4-methoxy-3-methylphenyl)bicyclo[2.2.2]octan-1-yl)methyl)-4-(2-methoxyacetamido)cyclohexanecar-boxamide]
≤ 0.05 µM	COc1ccc(C23CCC(CN(c4cc(-c5cnc(C6CC6)s5)ccn4)C(=O)[C@H]4CC[C@H](NC(C)=O)CC4)(CC2)CC3)cc1C [Compound 9.06, (trans)-4-Acetamido-N-(4-(2-cyclopropylthiazol-5-yl)pyridin-2-yl)-N-((4-(4-methoxy-3-methylphenyl)bicyclo[2.2.2]octan-1-yl)methyl)cyclohexanecarboxamide]
